ChEMBL document CHEMBL3853300, “Synthesis of α-santonin derived acetyl santonous acid triazole derivatives and their bioevaluation for T and B-cell proliferation” (Eur J Med Chem, 2016)

Assays:
[1] = species on record: Mus musculus; test: Cytotoxicity against Balb/c mouse B cells assessed as decrease in cell viability at 100 uM after 48 hrs by MTT assay; type: toxicity, cell-based
[2] = species on record: Mus musculus; test: Cytotoxicity against Balb/c mouse B cells assessed as decrease in cell viability at 10 uM after 48 hrs by MTT assay; type: toxicity, cell-based
[3] = species on record: Mus musculus; test: Cytotoxicity against Balb/c mouse B cells assessed as decrease in cell viability at 1 uM after 48 hrs by MTT assay; type: toxicity, cell-based
[4] = species on record: Mus musculus; test: Cytotoxicity against Balb/c mouse T cells assessed as decrease in cell viability at 100 uM after 48 hrs by MTT assay; type: toxicity, cell-based
[5] = species on record: Mus musculus; test: Cytotoxicity against Balb/c mouse T cells assessed as decrease in cell viability at 10 uM after 48 hrs by MTT assay; type: toxicity, cell-based
[6] = species on record: Mus musculus; test: Cytotoxicity against Balb/c mouse T cells assessed as decrease in cell viability at 1 uM after 48 hrs by MTT assay; type: toxicity, cell-based
[7] = Immunosuppressive activity in Balb/c mouse T cells assessed as inhibition of ConA-induced cell proliferation at 100 uM after 48 hrs by MTT assay relative to control; type: functional
[8] = Immunosuppressive activity in Balb/c mouse T cells assessed as inhibition of ConA-induced cell proliferation at 10 uM after 48 hrs by MTT assay relative to control; type: functional
[9] = Immunosuppressive activity in Balb/c mouse T cells assessed as inhibition of ConA-induced cell proliferation at 1 uM after 48 hrs by MTT assay relative to control; type: functional
[10] = Immunostimulatory activity in Balb/c mouse B cells assessed as induction of LPS-induced cell proliferation at 100 uM after 48 hrs by MTT assay relative to control; type: cell-based
[11] = Immunostimulatory activity in Balb/c mouse B cells assessed as induction of LPS-induced cell proliferation at 10 uM after 48 hrs by MTT assay relative to control; type: cell-based
[12] = Immunostimulatory activity in Balb/c mouse B cells assessed as induction of LPS-induced cell proliferation at 1 uM after 48 hrs by MTT assay relative to control; type: cell-based
[13] = Immunosuppressive activity in Balb/c mouse B cells assessed as inhibition of LPS-induced cell proliferation at 100 uM after 48 hrs by MTT assay relative to control; type: functional
[14] = Immunosuppressive activity in Balb/c mouse B cells assessed as inhibition of LPS-induced cell proliferation at 10 uM after 48 hrs by MTT assay relative to control; type: functional
[15] = Immunosuppressive activity in Balb/c mouse B cells assessed as inhibition of LPS-induced cell proliferation at 1 uM after 48 hrs by MTT assay relative to control; type: functional
[16] = tested on: T-cell; test: Immunosuppressive activity in Balb/c mouse T cells assessed as inhibition of ConA-induced cell proliferation after 48 hrs by MTT assay relative to control; type: functional, cell-based
[17] = Immunosuppressive activity in Balb/c mouse B cells assessed as inhibition of LPS-induced cell proliferation at 50 uM after 48 hrs by MTT assay relative to control; type: functional
[18] = tested on: B; test: Immunosuppressive activity in Balb/c mouse B cells assessed as inhibition of LPS-induced cell proliferation after 48 hrs by MTT assay relative to control; type: functional, cell-based

| Compound | Activity [1] | Activity [2] | Activity [3] | Activity [4] | Activity [5] | Activity [6] | inhibition at 100 µM [7] [%] | inhibition at 10 µM [8] [%] | inhibition at 1 µM [9] [%] | Activity [10] [%] | Activity [11] [%] | Activity [12] [%] | inhibition at 100 µM [13] [%] | inhibition at 10 µM [14] [%] | inhibition at 1 µM [15] [%] | inhibition [16] | inhibition at 50 µM [17] [%] | inhibition [18] |
| --- | --- | --- | --- | --- | --- | --- | --- | --- | --- | --- | --- | --- | --- | --- | --- | --- | --- | --- |
| CC(=O)Oc1cc(C)c2c(c1C)C[C@H]([C@@H](C)C(=O)OCc1cn(-c3cccc(C#N)c3)nn1)CC2 | Toxic | Non-Toxic | Toxic | Toxic | Non-Toxic | Toxic | 45.4 | 25.9 | 20.4 | 37.71 | 42.28 | 8 |  |  |  |  |  |  |
| CC(=O)Oc1cc(C)c2c(c1C)C[C@H]([C@@H](C)C(=O)O)CC2 | Non-Toxic | Toxic | Toxic | Non-Toxic | Toxic | Toxic | 75 | 52.3 | 31.8 |  |  |  | 71.8 | 57.2 | 58.8 | Dose-dependent effect | 75 | Dose-dependent effect |
